Square brackets hold non-standard residues; d marks the D form. Peptide text beside a SMILES is read from it. * marks the point of attachment. Dolaproine = CO[C@@H]([C@@H]1CCCN1)[C@@H](C)C(=O)O; Dil = CC[C@H](C)[C@H](NC)[C@@H](CC(=O)O)OC; X2 = C[C@@H](N*)[C@@H](O)c1ccccc1; NMeV = CN[C@H](C(=O)O)C(C)C
Key:
FaDu cells = assay: Tumor growth inhibition test, FaDu subcutaneous tumor in C.B-17 SCID mice; type: in vivo; conditions: Day 8-29; 0.1 mg/kg intravenously once at Day 8; n=6
Method: (§1) 1×10^6 of FaDu cells were subcutaneous injected to C.B-17 SCID mice at Day 0. The length and width of the tumor were measured and the tumor size was calculated by (length×width×width×½) (mm^3) and recorded. […] Tumor growth and body weight of the mice were observed twice every week.

[1] = Body weight and clinical symptoms in the tumor growth inhibition test; conditions: FIG. 20
Method: as §1

CC[C@H](C)C([C@@H](CC(=O)N1CCC[C@H]1[C@H](OC)[C@@H](C)C(=O)NC(Cc1ccccc1)C(=O)NCCc1ccc(N)cc1)OC)N(C)C(=O)C(NC(=O)[C@H](C(C)C)N(C)C)C(C)C (stereo partly shown) [APEA-AF]
TGI (%) ± SEM (FaDu cells): 11 ± 17% | weight loss or abnormal clinical symptoms after drug administration [1]: no weight losing or other significant abnormal clinical symptoms occurred

CC[C@H](C)[C@@H]([C@@H](CC(=O)N1CCC[C@H]1[C@H](OC)[C@@H](C)C(=O)N[C@H](C)[C@@H](O)c1ccccc1)OC)N(C)C(=O)[C@@H](NC(=O)[C@@H](NC)C(C)C)C(C)C [MMAE] (H-[NMeV]V[Dil][Dolaproine]-X2)
TGI (%) ± SEM (FaDu cells): 12 ± 6% | weight loss or abnormal clinical symptoms after drug administration [1]: no weight losing or other significant abnormal clinical symptoms occurred

Source: patent US10618935B2, “Antibody-drug conjugate (ADC) and method for forming the same” (Industrial Technology Research Institute, priority 2015, dated 2020)
